From patent EP4389156A1, “RA[…] LIGAND COMPOUNDS AND PRECURSORS THEREOF” (Technische Universität München, priority 2022, dated 2024)

Experiments:
[1] = biological target: T1, human serum albumin (HSA) (Homo sapiens, UniProt P02768); experiment: HSA binding by high performance affinity chromatography (HPAC); format: in vitro ADME; conditions: uncomplexed compounds, n = 1
T1 construct: purchased Daicel, Tokyo, Japan H13H-2433
Procedure: HSA binding of the uncomplexed PSMA ligands was determined according to a previously published procedure via HPLC (Valko, K.; Nunhuck, S.; Bevan, C.; Abraham, M. H.; Reynolds, D. P., Fast gradient HPLC method to determine compounds binding to human serum albumin. Relationships with octanol/water and immobilized artificial membrane lipophilicity. J Pharm Sci. 2003, 92, 2236-2248). A Chiralpak HSA column (50 × 3 mm, 5 µm, H13H-2433, Daicel, Tokyo, Japan) was used at a constant flow rate of 0.5 mL/min at rt. Mobile phase A was a freshly prepared 50 mM aqueous solution of NH4OAc (pH 6.9) and mobile phase B was isopropanol (HPLC grade, VWR). The applied gradient for all experiments was 100% A (0 to 3 min), followed by 80% A (3 to 40 min). Prior to the experiment, the column was calibrated using nine reference substances with a HSA binding, known from literature, in the range of 13 to 99% (Valko, K.; Nunhuck, S.; Bevan, C.; Abraham, M. H.; Reynolds, D. P., J Pharm Sci. 2003, 92, 2236-2248; Yamazaki, K.; Kanaoka, M., Computational prediction of the plasma protein-binding percent of diverse pharmaceutical compounds. J Pharm Sci. 2004, 93, 1480-1494). All substances, including the examined PSMA ligands, were dissolved in a 1:1 mixture (v/v) of isopropanol and a 50 mM aqueous solution of NH4OAc (pH 6.9) with a final concentration of 0.5 mg/mL. Non-linear regression was established with the OriginPro 2016G software (Northampton, United States).

[2] = biological target: T2, PSMA (Homo sapiens, UniProt Q04609); experiment: Competitive binding study, inverse IC50 (99mTc-radioligand versus increasing IBA-KuE); conditions: inverse IC50: IBA-KuE competes against 99mTc-radioligand (0.2 nM/well); higher values = higher affinity; 1 h, 4°C, n = 3, mean ± SD; read-out: IC50, inv.
T2 construct: endogenous in cells; printed for the internalization assay of the same paragraph
T2 sequence (Q04609 whole entry): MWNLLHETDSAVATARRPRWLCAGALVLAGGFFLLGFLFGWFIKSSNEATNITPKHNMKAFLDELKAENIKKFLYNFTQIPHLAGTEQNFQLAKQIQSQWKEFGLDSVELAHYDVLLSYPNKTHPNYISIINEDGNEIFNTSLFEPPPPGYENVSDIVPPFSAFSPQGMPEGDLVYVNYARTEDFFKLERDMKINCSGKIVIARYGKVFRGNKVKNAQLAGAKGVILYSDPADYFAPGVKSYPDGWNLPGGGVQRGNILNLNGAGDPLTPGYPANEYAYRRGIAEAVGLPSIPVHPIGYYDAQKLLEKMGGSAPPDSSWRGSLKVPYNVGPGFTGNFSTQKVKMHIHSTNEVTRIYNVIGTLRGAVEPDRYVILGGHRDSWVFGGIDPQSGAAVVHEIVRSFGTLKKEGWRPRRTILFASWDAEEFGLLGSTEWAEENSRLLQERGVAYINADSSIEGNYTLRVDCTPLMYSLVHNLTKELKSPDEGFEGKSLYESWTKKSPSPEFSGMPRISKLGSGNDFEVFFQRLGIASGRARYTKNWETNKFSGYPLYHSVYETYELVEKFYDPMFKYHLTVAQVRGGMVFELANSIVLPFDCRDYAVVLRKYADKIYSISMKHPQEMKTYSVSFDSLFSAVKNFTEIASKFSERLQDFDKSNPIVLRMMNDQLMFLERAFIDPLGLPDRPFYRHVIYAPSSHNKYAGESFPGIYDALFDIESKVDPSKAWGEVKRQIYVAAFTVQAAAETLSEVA
Procedure: (§1) Competitive binding studies were carried out in analogy to a previously reported procedure. As a modification the non-radiolabeled standard competitor (((S)-1-carboxy-5-(4-(iodo)benzamido)pentyl)carbamoyl)-L-glutamic acid (IBA-KuE) was applied in increasing concentrations (10^-5 - 10^-11 M/well, n = 3 each) whereas the novel PSMA-binding compounds of interest were applied as ^99mTc-labeled radioligands (0.2 nM/well). In this inversed experimental approach, higher values correspond to higher affinities and are referred to as inverse IC50. Poly-L-lysine coated 24-well plates were used (n = 3). Data are given as mean ± SD. To determine the cellular uptake of the ^99mTc-labeled PSMA ligands into LNCaP cells by means of PSMA-mediated internalization at 1 h, a previously reported protocol was applied with assay concentrations of 1.0 nM and 0.2 nM for ^99mTc-labeled PSMA ligands and the reference compound [^125I]IBA-KuE, respectively. Data are corrected for non-specific binding and normalized to the specific internalization of the reference. Results are given as mean ± SD.

[3] = tested on: LNCaP cells; experiment: PSMA-mediated internalization into LNCaP cells; format: cell-based; conditions: 1 h
Procedure: as §1

[4] = Lipophilicity (logD7.4), shake-flask method; format: physicochemical; conditions: n-octanol/PBS (pH 7.4), n = 8, mean ± SD
Procedure: The lipophilicity of ^99mTc-labeled PSMA ligands, expressed as distribution coefficient (logD7.4), was determined using the shake-flask method. A solution of approximately 1 MBq of radioligand in 1 mL of a 1:1 mixture of PBS (pH = 7.4) and n-octanol (n = 8) was vortexed vigorously for 3 min. After centrifugation at 9000 rpm for 5 min aliquots of both phases (200 µL n-octanol, 50 µL PBS) were collected and the activity was quantified in a γ-counter. logD7.4 values were calculated as decadic logarithm of the activity concentration ratio between the n-octanol phase and the aqueous phase. Data are given as mean ± standard deviation (SD). Binding to human plasma was determined by incubation of radioligands in human plasma (2 nM concentration, 37 °C for 30 min) and subsequent ultrafiltration (250 µL aliquots, 3200 rpm, 40 min) in Centrifree® ultrafiltration devices (Merck Millipore, Cork, Ireland). The fraction bound to human plasma proteins was calculated as the ratio of unfiltered activity and the total activity in the ultrafiltration device. Measurements were performed in three independent experiments, each with two replicates (n = 6, data are given as mean ± SD). All values were corrected for non-specific binding (control experiments in PBS).

T1 sequence (P02768 25-609): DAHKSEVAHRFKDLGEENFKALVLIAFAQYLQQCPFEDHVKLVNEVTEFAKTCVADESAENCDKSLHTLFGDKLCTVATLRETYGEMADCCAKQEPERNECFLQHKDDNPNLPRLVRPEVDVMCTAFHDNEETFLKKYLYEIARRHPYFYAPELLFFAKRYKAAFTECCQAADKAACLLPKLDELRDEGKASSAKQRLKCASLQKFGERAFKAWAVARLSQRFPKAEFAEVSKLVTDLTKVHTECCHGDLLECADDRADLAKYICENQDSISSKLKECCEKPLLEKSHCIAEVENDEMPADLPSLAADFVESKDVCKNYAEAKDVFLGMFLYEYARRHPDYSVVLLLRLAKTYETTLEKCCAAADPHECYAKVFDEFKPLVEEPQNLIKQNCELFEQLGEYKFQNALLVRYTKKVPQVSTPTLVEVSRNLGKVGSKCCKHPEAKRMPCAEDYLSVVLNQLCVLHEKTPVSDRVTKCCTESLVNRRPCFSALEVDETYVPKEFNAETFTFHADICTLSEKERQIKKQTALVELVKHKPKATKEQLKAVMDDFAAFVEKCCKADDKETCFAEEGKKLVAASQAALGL

## CC(C)(C)[Si](O)(c1ccc(C(=O)NC[C@@H](NC(=O)[C@@H](CCC(=O)O)NC(=O)C(CNCCN)CNCCN)C(=O)N[C@H](CCCCNC(=O)CCC(=O)NCCC[C@@H](NC(=O)CC[C@H](NC(=O)N[C@@H](CCC(=O)O)C(=O)O)C(=O)O)C(=O)O)C(=O)O)cc1)C(C)(C)C.[O]=[99Tc+]=[O] [[^99mTc]Tc-N4-PSMA-12]
[1]
  HSA-binding (HPAC) (%): 47.7%
[2]
  inverse IC50: 11 ± 2.8 nM
[3]; 37°C, n = 3, as percentage of reference [125I]IBA-KuE, mean ± SD
  internalization (% IBA-KuE): 311 ± 16%
[3]; relative to [^99mTc]Tc-N4-PSMA-13
  fold higher internalization than [^99mTc]Tc-N4-PSMA-13: 1.9 fold
[3]; relative to [^99mTc]Tc-N4-PSMA-21
  fold higher internalization than [^99mTc]Tc-N4-PSMA-21: 1.7 fold
[3]; relative to [^99mTc]Tc-PSMA-I&S
  fold higher internalization than [^99mTc]Tc-PSMA-I&S: 1.3 fold
[4]
  logD7.4: -3.35 ± 0.05
